Key:
[1] = Acute toxicity (LD50), mice, oral; conditions: mouse, in vivo
Text: (§1) The LD50 values for acyclovir, dilazep and dipyridamole, referred to above are as follows: […]

[2] = tested on: herpes simplex type 1 (KOS strain); experiment: Plaque reduction assay in Vero cells infected with herpes simplex type 1 (KOS strain); type: cell-based; conditions: single agent; for Average Plaque Count: controls = 480
Procedure: The antiviral activity was determined using a plaque reduction assay. Petri plates were seeded with Vero cells which were then allowed to grow to confluency. […] The inhibitors, either alone or in the indicated combinations, were dissolved to give the indicated concentrations in minimal essential medium containing 2% heat inactivated fetal calf serum and 0.5% human immune serum globulin. One hour after infection the solutions (10 ml per plate) were added to the cultures. Three days later the cultures were foramlin-fixed and stained with crystal violet, and the plaques were counted.

[3] = Acute toxicity (LD50), rats, oral; conditions: rat, in vivo
Text: as §1

[4] = Human alphaherpesvirus 1, Vero, Conc. 1.0 μM
[5] = Human alphaherpesvirus 1, Vero, Conc. 5.0 μM

Nc1nc2c(ncn2COCCO)c(=O)[nH]1 [ACV, 9-[(2-hydroxyethoxy)methyl]guanine]
LD50 ([1]; mice oral): > 10000 mg/kg
Average Plaque Count ([2]; Conc. 1.0 μM): 279.5
Average Plaque Count ([2]; Conc. 2.5 μM): 133.5
Average Plaque Count ([2]; Conc. 5.0 μM): 29.5
inhibition at 1 µM [2, 4]: 41.8%
inhibition at 2.5 µM ([2]; Human alphaherpesvirus 1, Vero, Conc. 2.5 μM): 72.3%
inhibition at 5 µM [2, 5]: 93.8%

O=[N+]([O-])c1ccc(CSc2ncnc3c2ncn3[C@@H]2O[C@H](CO)[C@@H](O)[C@H]2O)cc1 [Compound A, 6-[(4-nitrobenzyl)thio]-9-(β-D-ribofuranosyl)purine]
Average Plaque Count ([2]; Conc. 2.0 μM): 484.0
inhibition at 2 µM ([2]; Human alphaherpesvirus 1, Vero, Conc. 2.0 μM): 0%

COc1cc(C(=O)OCCCN2CCCN(CCCOC(=O)c3cc(OC)c(OC)c(OC)c3)CC2)cc(OC)c1OC [Dilazep]
LD50 ([1]; male mice, oral): 3740 mg/kg
Average Plaque Count ([2]; Conc. 1.0 μM): 442.0
inhibition at 1 µM [2, 4]: 8%

OCCN(CCO)c1nc(N2CCCCC2)c2nc(N(CCO)CCO)nc(N3CCCCC3)c2n1 [Dipyridamole]
LD50 [3]: 8400 mg/kg
Average Plaque Count ([2]; Conc. 5.0 μM): 474.0
inhibition at 5 µM [2, 5]: 1%
